Data published in patent US9139596B2, “Cyclic prodrugs of duocarmycin analogs” (The Scripps Research Institute, priority 2012, dated 2015).
pIC50: −log10 of the molar value. Where two headings read alike, the source gives them in different places.

Assays:
[1] = test system: L1210 murine leukemia cells implanted ip; test: In vivo antitumor activity (L1210, ip); details: for Surviving Mice: live animals after 250 days
Method: Therefore, the in vivo antitumor activity of (+)-6 was assessed alongside seco-CBI-indole2 (4) in an antitumor model consisting of L1210 murine leukemia cells implanted ip into […] which has been used historically as an initial antitumor model for comparisons in this class.^11,12,14,15 A dose range of 300 to 9000 μg/kg for prodrug (+)-6 (scaled to its in vitro cytotoxic activity IC50) and 60 to 500 μg/kg for seco-CBI-indole2 (4) and a dosing schedule (administered three times ip on days 1, 5, and 9) for both compounds was employed.
B6D2F1 mice were injected intraperitoneal (i.p.) with syngeneic L1210 cells (1×10^6) on day 0. Ten mice were randomly assigned to control vehicle or treatment groups for compounds (+)-4 and (+)-6 at doses of 60, 100, 250, and 500 μg/kg/inj for (+)-4 or 300, 1000, 3000, and 9000 μg/kg/inj for (+)-6. Compounds (+)-4 and (+)-6 were formulated in 100% DMSO, and injected i.p. on study days 1, 5, and 9. Following injection of tumor cells, animals were monitored daily and weighed two times per week. Percent survival (T/C) for treated and control groups were determined by dividing the total survival days for each treatment group by the total survival days for the control group and multiplying ×100. All animal studies were carried out in the animal facilities of The University of Kansas Medical Center with strict adherence to the guidelines of the IACUC Animal Welfare Committee of KUMC (IACUC approval #2009-1837).

[2] = test system: L1210 murine leukemia cells implanted ip; details: previously established; cited from earlier work
[3] = test system: L1210 murine leukemia cell line; test: In vitro cytotoxic activity (cell growth inhibition), L1210; format: cell-based
Method: In Vitro Cytotoxic Activity. Both (+)- and ent-(−)-6 and their N-Boc precursors 16 were tested for cell growth inhibition in a cytotoxic assay with the L1210 murine leukemia cell line.

[4] = Stability in pH 7.0 phosphate buffer; details: for half-life: buffer
[5] = Stability in human plasma
Method: Reagents and solvents were purchased reagent-grade and used without further purification. Pooled human plasma, with sodium citrate as an anticoagulant, was purchased from Innovative Research and stored at −20° C. […] All reactions were performed in oven-dried glassware under an Ar atmosphere. Evaporation and concentration in vacuo was performed at 20° C. […] Chiral phase HPLC was performed using a Shimadzu HPLC on a semi-preparative Diacel ChiralCel OD column (0.46 cm×25 cm) with a flow rate of 7 mL/min and with UV detection at λ=254 nm. Optical rotations were determined on a Rudolf Research Analytical Autopol III Automatic Polarimeter (λ=589 nm, 25° C.).

[6] = Stability in mouse plasma (Table 4)
w794 DNA = test: DNA alkylation in cell-free systems; format: biochemical
Source text: Lane 1, control DNA; lanes 2-5, Sanger G, C, A, and T sequencing reactions; lanes 6-8, (+)-1 (1×10^−4 to 1×10^−6); lanes 9-10, (−)−1 (1×10^−3 to 1×10^−4); lanes 11-12, (+)-6 (1×10^−1 to 1×10^−2).

Solvolysis of 21 = format: physicochemical; details: 25° C., UV 255 nm; for half-life: CH3OH / aqueous citrate-phosphate buffer, read-out: solvolysis t1/2 (converted); for solvolysis rate constant k: CH3OH
Method: Compound 21 was dissolved in CH3OH (1.5 mL). […] After mixing, the solvolysis solutions were stoppered and kept at 25° C. in the dark. The UV spectrum of the solutions was measured 3-4 times in the first two days and once a day for 2-4 weeks. The UV monitoring was continued until no further change was detectable. The long-wavelength absorption at 380 nm and short-wavelength absorption at 255 nm were monitored. The solvolysis rate constant and half-life were calculated from the data recorded at the short wavelength (255 nm) from the least square treatment of the slopes of plots of time versus ln [(AFinal−Ainitial)/(Afinal−A)].

[7] = calf serum; cited from earlier work
[8] = test system: L1210 murine leukemia cell line; details: L1210, natural enantiomer, literature ref 9; cited from earlier work
[9] = human, plasma; cited from earlier work
[10] = 60 μg/kg i.p. on days 1, 5, and 9
[11] = 100 μg/kg i.p. on days 1, 5, and 9
[12] = 250 μg/kg i.p. on days 1, 5, and 9
[13] = 500 μg/kg i.p. on days 1, 5, and 9
[14] = 300 μg/kg i.p. on days 1, 5, and 9
[15] = 1000 μg/kg i.p. on days 1, 5, and 9
[16] = 3000 μg/kg i.p. on days 1, 5, and 9
[17] = 9000 μg/kg i.p. on days 1, 5, and 9
[18] = pH 1 buffer (: 0.2 M Na2HPO4: H2O 4:1:20)
[19] = pH 2 buffer (1.0 M citric acid: 0.2 M Na2HPO4: H2O 4:1:20)

Structure (SMILES): O=C(Nc1ccc2[nH]c(C(=O)N3C[C@@H](CCl)c4c3cc(O)c3ccccc43)cc2c1)c1cc2ccccc2[nH]1 [Compound 4, seco-CBI-indole2, reference compound]
- MSP (Mean Survival Period) [1, 10]: >34.7 days
- T/C (Treated/Control MSP x 100) [1, 10]: >197
- Surviving Mice [1, 10]: 1/10
- MSP (Mean Survival Period) [1, 11]: 6.4 days
- T/C (Treated/Control MSP x 100) [1, 11]: 36
- Surviving Mice [1, 11]: 0/10
- MSP (Mean Survival Period) [1, 12]: 3.7 days
- T/C (Treated/Control MSP x 100) [1, 12]: 21
- Surviving Mice [1, 12]: 0/10
- MSP (Mean Survival Period) [1, 13]: 3.0 days
- T/C (Treated/Control MSP x 100) [1, 13]: 17
- Surviving Mice [1, 13]: 0/10
- toxicity leading to premature death of the animals ([1]; doses of 100-500 μg/kg i.p. on days 1, 5, and 9): toxic
- optimal dose range [2]: 0.06 to 0.1 mg/kg
- pIC50 ([3]; L1210, free drug, natural enantiomer, read-out: IC50): 10.52
- pIC50 ([3]; natural (S)-enantiomer, Table 4, read-out: In vitro IC50 L1210 natural): 10.52
- pIC50 ([3]; natural enantiomer, Table 2, read-out: IC50 L1210 natural): 10.52
- pIC50 ([3]; unnatural (R)-enantiomer, Table 4, read-out: In vitro IC50 L1210 unnatural): 9.05
- pIC50 ([3]; unnatural enantiomer, Table 2, read-out: IC50 L1210 unnatural): 9.05

Structure (SMILES): O=C1Nc2cccc3c4c(cc(c23)O1)N(C(=O)c1cc2cc(NC(=O)c3cc5ccccc5[nH]3)ccc2[nH]1)C[C@H]4CCl [Compound 6, N-(2-(10-(Chloromethyl)-5-oxo-5,8,9,10-tetrahydro-4H-pyrrolo[3′,2′:5,6]naphtho[1,8-de][1,3]oxazine-8-carbonyl)-1H-indol-5-yl)-1H-indole-2-carboxamide]
- half-life ([4]; pH 7, Stability t1/2, pH 7.0 phosphate buffer, Table 4): > 168 h
- half-life ([4]; pH 7, t1/2, pH 7.0 phosphate buffer): > 672 h
- cleavage of the prodrug ([4]; pH 7.0 phosphate buffer): no cleavage observed
- free drug release ([5]; human plasma, 48 h): 5%
- half-life ([5]; human, plasma): > 48 h
- half-life [6]: 12 h
- MSP (Mean Survival Period) [1, 14]: 24.7 days
- T/C (Treated/Control MSP x 100) [1, 14]: 140
- Surviving Mice [1, 14]: 0/10
- MSP (Mean Survival Period) [1, 15]: >48.5 days
- T/C (Treated/Control MSP x 100) [1, 15]: >275
- Surviving Mice [1, 15]: 1/10
- MSP (Mean Survival Period) [1, 16]: >55.3 days
- T/C (Treated/Control MSP x 100) [1, 16]: >310
- Surviving Mice [1, 16]: 1/10
- MSP (Mean Survival Period) [1, 17]: >172.6 days
- T/C (Treated/Control MSP x 100) [1, 17]: >980
- T/C (Treated/Control MSP x 100) ([1]; 9000 μg/kg i.p. on days 1, 5, and 9, listed as (+)-6): > 980
- Surviving Mice [1, 17]: 5/10
- antitumor activity over the dose range examined ([1]; 300 to 9000 μg/kg (30-fold range) i.p. on days 1, 5, and 9): productive antitumor activity over the entire and much larger dose range examined
- tolerance at the injection sites ([1]; ip administration, compared with the free drug): tolerated at the injection sites of the animals much better than the free drug
- fold less potent than the parent drug 20 ([3]; L1210): 30-70 fold
- fold more potent than its unnatural enantiomer ([3]; L1210): 6 fold
- potency of natural (S)- versus unnatural (R)-enantiomer ([3]; L1210): about one order of magnitude more potent
- times more potent than its N-Boc precursor 16 ([3]; L1210): 100 to 1000 times
- fold less potent than the free drug seco-CBI-indole2 4 ([3]; L1210, natural enantiomer): approximately 200 fold
- pIC50 ([3]; Mus musculus, L1210, natural (S)-enantiomer, Table 4, read-out: In vitro IC50 L1210 natural): 8.18
- pIC50 ([3]; Mus musculus, L1210, natural enantiomer, Table 2, read-out: IC50 L1210 natural): 8.18
- pIC50 ([3]; Mus musculus, L1210, unnatural (R)-enantiomer, Table 4, read-out: In vitro IC50 L1210 unnatural): 7.40
- pIC50 ([3]; Mus musculus, L1210, unnatural enantiomer, Table 2, read-out: IC50 L1210 unnatural): 7.40
- pIC50 ([3]; Mus musculus, L1210, stated range, read-out: in vitro cellular potency (IC50)): 8.00 to 9.00
- DNA alkylation (w794 DNA): incapable of alkylating DNA

Structure (SMILES): CC(C)(C)OC(=O)N1CC2CC23C1=CC(=O)c1c(N)cccc13 (stereo not shown) [Compound 21, N-tert-Butyloxycarbonyl-5-amino-1,2,9,9a-tetrahydrocyclopropa[c]benzo[e]indole-4-one]
- half-life (Solvolysis of 21; [18]): 8.52 h
- half-life (Solvolysis of 21; [19]): 40.3 h
- solvolysis rate constant k (Solvolysis of 21; [18]): 1.5e-05 s⁻¹
- solvolysis rate constant k (Solvolysis of 21; [19]): 5e-06 s⁻¹

Structure (SMILES): COC(=O)c1c(C)[nH]c2c(OC(=O)N3CCN(C)CC3)cc3c(c12)[C@H](CBr)CN3C(=O)c1cc2cc(OC)c(OC)c(OC)c2[nH]1 [KW-2189]
- t1/2 [7]: 20 h

Structure (SMILES): CC(C)(C)OC(=O)N1CC2CC23C1=CC(=O)c1ccccc13 (stereo not shown) [N-Boc-CBI]
- pIC50 [8]: 7.10

Structure (SMILES): CCN(CC)c1ccc2cc(C(=O)Nc3ccc4[nH]c(C(=O)N5C[C@@H](CCl)c6c5cc(OC(=O)Nc5ccccc5)c5[nH]cc(C)c65)cc4c3)oc2c1 [carzelesin]
- t1/2 [9]: < 1 h
